Reference: patent US12544395B2, “Combination compositions comprising a beta-lactamase inhibitor and uses thereof” (priority 2018, dated 2026)

Experiments:
Type in all cases: cell-based
Details in all cases: with inhibitor at 4 μg/mL
K. pneumoniae BAA 1705 = experiment: Broth microdilution MIC (strain KPC-producing)
K. pneumoniae 319478 = experiment: Broth microdilution MIC (strain enzymes: SHV-12, CTX-M3 and TEM-1)
K. pneumoniae 153239 = experiment: Broth microdilution MIC (strain enzymes: SHV-11, TEM-1)
K. pneumoniae SI-KP NO30 = experiment: Broth microdilution MIC (strain enzymes: TEM-26b, SHV-60, SHV-26)
K. oxytoca 176877 = experiment: Broth microdilution MIC (strain enzymes: SHV-105)
K. pneumoniae 304487 = experiment: Broth microdilution MIC (strain enzymes: SHV-12,TEM-1)
E. coli SI-M004 = experiment: Broth microdilution MIC (strain enzymes: SHV-2, GES-12)
K. pneumoniae ESBL 7 #1 = experiment: Broth microdilution MIC (strain enzymes: SHV-12, TEM-1)
E. coli BAS 1 = experiment: Broth microdilution MIC (strain enzymes: none detected)
E. coli 3174 = experiment: Broth microdilution MIC (strain enzymes: TEM-1, CTXM-15)
E. coli 2806 = experiment: Broth microdilution MIC (strain enzymes: SHV-12, TEM-1)
E. coli SI-V502 = experiment: Broth microdilution MIC (strain enzymes: TEM-29, CTX-M15)
K. oxytoca 169219 = experiment: Broth microdilution MIC (strain enzymes: TEM-1, CTXM-15)
E. coli ESBL 5 = experiment: Broth microdilution MIC (strain enzymes: CTX-M15, TEM-1)
K. pneumoniae ESBL 8 #1 = experiment: Broth microdilution MIC (strain enzymes: TEM-1, SHV-12)
K. pneumoniae ESBL 8 #2 = experiment: Broth microdilution MIC (strain enzymes: SHV-12, TEM-1)
K. pneumoniae 329633 = experiment: Broth microdilution MIC (strain enzymes: SHV-5, TEM-1)
K. pneumoniae 170375 = experiment: Broth microdilution MIC (strain enzymes: SHV-12, CTX-M15 and TEM-1)
K. pneumoniae KPN 508 = experiment: Broth microdilution MIC (strain enzymes: SHV-7, TEM-1)

With `O=C(O)[C@H]1/C(=C/CO)O[C@@H]2CC(=O)N21` [Clavulanic acid, clavulanic acid, reference compound] the “MIC of cefalexin (LEX)” value (K. pneumoniae BAA 1705) was over 32 µg/mL, the “MIC of cefdinir (CDR)” value (K. pneumoniae BAA 1705) was over 32 µg/mL and the “MIC of cefixime (CFM)” value (K. pneumoniae BAA 1705) was over 32 µg/mL. The “MIC of ceftibuten (CTB)” value (K. pneumoniae BAA 1705) was 8 µg/mL, the “MIC of cefalexin (LEX)” value (K. pneumoniae 319478) was 0.5 µg/mL and the “MIC of cefdinir (CDR)” value (K. pneumoniae 319478) was 0.5 µg/mL. The “MIC of cefixime (CFM)” value (K. pneumoniae 319478) was 0.5 µg/mL, the “MIC of ceftibuten (CTB)” value (K. pneumoniae 319478) was 0.06 µg/mL and the “MIC of cefalexin (LEX)” value (K. pneumoniae 153239) was 0.25 µg/mL. For the same compound, the “MIC of cefdinir (CDR)” value (K. pneumoniae 153239) was 0.25 µg/mL, the “MIC of cefixime (CFM)” value (K. pneumoniae 153239) was 0.25 µg/mL and the “MIC of ceftibuten (CTB)” value (K. pneumoniae 153239) was 0.06 µg/mL. For the same compound, the “MIC of cefalexin (LEX)” value (K. pneumoniae SI-KP NO30) was 0.125 µg/mL, the “MIC of cefdinir (CDR)” value (K. pneumoniae SI-KP NO30) was 0.125 µg/mL and the “MIC of cefixime (CFM)” value (K. pneumoniae SI-KP NO30) was 0.06 µg/mL. For the same compound, the “MIC of ceftibuten (CTB)” value (K. pneumoniae SI-KP NO30) was 0.06 µg/mL, the “MIC of cefalexin (LEX)” value (K. oxytoca 176877) was 2 µg/mL and the “MIC of cefdinir (CDR)” value (K. oxytoca 176877) was 2 µg/mL. The “MIC of cefixime (CFM)” value (K. oxytoca 176877) was 0.25 µg/mL, the “MIC of ceftibuten (CTB)” value (K. oxytoca 176877) was 0.125 µg/mL and the “MIC of cefalexin (LEX)” value (K. pneumoniae 304487) was 0.5 µg/mL. For the same compound, the “MIC of cefdinir (CDR)” value (K. pneumoniae 304487) was 0.5 µg/mL, the “MIC of cefixime (CFM)” value (K. pneumoniae 304487) was 0.25 µg/mL and the “MIC of ceftibuten (CTB)” value (K. pneumoniae 304487) was 0.125 µg/mL. The “MIC of cefalexin (LEX)” value (E. coli SI-M004) was 0.5 µg/mL, the “MIC of cefdinir (CDR)” value (E. coli SI-M004) was 0.5 µg/mL and the “MIC of cefixime (CFM)” value (E. coli SI-M004) was 1 µg/mL. For the same compound, the “MIC of ceftibuten (CTB)” value (E. coli SI-M004) was 0.5 µg/mL, the “MIC of cefalexin (LEX)” value (K. pneumoniae ESBL 7 #1) was 0.5 µg/mL and the “MIC of cefdinir (CDR)” value (K. pneumoniae ESBL 7 #1) was 0.5 µg/mL. For the same compound, the “MIC of cefixime (CFM)” value (K. pneumoniae ESBL 7 #1) was 0.25 µg/mL, the “MIC of ceftibuten (CTB)” value (K. pneumoniae ESBL 7 #1) was 0.125 µg/mL and the “MIC of cefalexin (LEX)” value (E. coli BAS 1) was 16 µg/mL. For the same compound, the “MIC of cefdinir (CDR)” value (E. coli BAS 1) was 16 µg/mL, the “MIC of cefixime (CFM)” value (E. coli BAS 1) was over 32 µg/mL and the “MIC of ceftibuten (CTB)” value (E. coli BAS 1) was over 32 µg/mL. For the same compound, the “MIC of cefalexin (LEX)” value (E. coli 3174) was 0.25 µg/mL, the “MIC of cefdinir (CDR)” value (E. coli 3174) was 0.25 µg/mL and the “MIC of cefixime (CFM)” value (E. coli 3174) was 0.5 µg/mL. For the same compound, the “MIC of ceftibuten (CTB)” value (E. coli 3174) was 0.5 µg/mL, the “MIC of cefalexin (LEX)” value (E. coli 2806) was 0.25 µg/mL and the “MIC of cefdinir (CDR)” value (E. coli 2806) was 0.25 µg/mL. For the same compound, the “MIC of cefixime (CFM)” value (E. coli 2806) was 1 µg/mL, the “MIC of ceftibuten (CTB)” value (E. coli 2806) was 0.25 µg/mL and the “MIC of cefalexin (LEX)” value (E. coli SI-V502) was 1 µg/mL. The “MIC of cefdinir (CDR)” value (E. coli SI-V502) was 1 µg/mL, the “MIC of cefixime (CFM)” value (E. coli SI-V502) was 1 µg/mL and the “MIC of ceftibuten (CTB)” value (E. coli SI-V502) was 0.5 µg/mL. For the same compound, the “MIC of cefalexin (LEX)” value (K. oxytoca 169219) was 0.25 µg/mL, the “MIC of cefdinir (CDR)” value (K. oxytoca 169219) was 0.25 µg/mL and the “MIC of cefixime (CFM)” value (K. oxytoca 169219) was 0.125 µg/mL. For the same compound, the “MIC of ceftibuten (CTB)” value (K. oxytoca 169219) was 0.0149 µg/mL, the “MIC of cefalexin (LEX)” value (E. coli ESBL 5) was 1 µg/mL and the “MIC of cefdinir (CDR)” value (E. coli ESBL 5) was 1 µg/mL. The “MIC of cefixime (CFM)” value (E. coli ESBL 5) was 1 µg/mL, the “MIC of ceftibuten (CTB)” value (E. coli ESBL 5) was 0.5 µg/mL and the “MIC of cefalexin (LEX)” value (K. pneumoniae ESBL 8 #1) was 0.06 µg/mL. For the same compound, the “MIC of cefdinir (CDR)” value (K. pneumoniae ESBL 8 #1) was 0.06 µg/mL, the “MIC of cefixime (CFM)” value (K. pneumoniae ESBL 8 #1) was 0.06 µg/mL and the “MIC of ceftibuten (CTB)” value (K. pneumoniae ESBL 8 #1) was 0.03 µg/mL. For the same compound, the “MIC of cefalexin (LEX)” value (K. pneumoniae ESBL 8 #2) was 0.125 µg/mL, the “MIC of cefdinir (CDR)” value (K. pneumoniae ESBL 8 #2) was 0.125 µg/mL and the “MIC of cefixime (CFM)” value (K. pneumoniae ESBL 8 #2) was 0.03 µg/mL. For the same compound, the “MIC of ceftibuten (CTB)” value (K. pneumoniae ESBL 8 #2) was 0.06 µg/mL, the “MIC of cefalexin (LEX)” value (K. pneumoniae 329633) was 0.25 µg/mL and the “MIC of cefdinir (CDR)” value (K. pneumoniae 329633) was 0.25 µg/mL. The “MIC of cefixime (CFM)” value (K. pneumoniae 329633) was 0.03 µg/mL, the “MIC of ceftibuten (CTB)” value (K. pneumoniae 329633) was 0.03 µg/mL and the “MIC of cefalexin (LEX)” value (K. pneumoniae 170375) was 1 µg/mL. For the same compound, the “MIC of cefdinir (CDR)” value (K. pneumoniae 170375) was 1 µg/mL, the “MIC of cefixime (CFM)” value (K. pneumoniae 170375) was 0.5 µg/mL and the “MIC of ceftibuten (CTB)” value (K. pneumoniae 170375) was 0.06 µg/mL. The “MIC of cefalexin (LEX)” value (K. pneumoniae KPN 508) was 0.125 µg/mL, the “MIC of cefdinir (CDR)” value (K. pneumoniae KPN 508) was 0.125 µg/mL and the “MIC of cefixime (CFM)” value (K. pneumoniae KPN 508) was 0.25 µg/mL. For the same compound, the “MIC of ceftibuten (CTB)” value (K. pneumoniae KPN 508) was 0.06 µg/mL.
